In patent publication US20150044245A1, “PARTIAL MHC CONSTRUCTS AND METHODS OF USE” (Oregon Health & Science University, priority 2012, published 2015):

Columns and labels:
[1] = test system: mMOG-35-55-induced EAE in DR*1501-Tg mice
[2] = molecular target: low affinity binding site for RTL on MHC class II deficient mouse splenocytes; test: competition of unlabeled construct with labeled RTL1000 on MHC class II deficient mouse splenocytes; low affinity site
[3] = molecular target: low affinity binding site for RTL on DR*1501-Tg mouse splenocytes; test: competition of unlabeled construct with labeled RTL1000 (280 nM) on DR*1501-Tg splenocytes; low affinity site
[4] = molecular target: low affinity binding site for RTL on MHC class II deficient mouse splenocytes; test: competition on whole cells of MHC class II knockout mice: labeled RTL1000 against increasing unlabeled RTL340; SDS-PAGE fluorescence densitometry
[5] = free peptide 10 μg i.v. daily for 5 days from onset

EC50 [2] [nM] | EC50 [3] [nM] | IC50 (read off the curve) [4] [nM] | Substance | CDI [1, 5] | Incidence [1, 5] | Mortality [1, 5] | Onset [1, 5] | Peak [1, 5] | effect on EAE (in words) ([1]; mMOG-35-55-induced EAE)
– | – | – | mMOG-35-55 peptide: free mouse MOG-35-55 peptide, MEVGWYRSPFSRVVHLYRNGK (SEQ ID NO: 50) (Synthetic peptide - mouse MOG 35-55) [reference compound] | 31.5 ± 9.8 | 5/5 | 0 | 11.2 ± 1.2 | 3.0 ± 0.9 | did not produce significant inhibition of EAE
43.2 | 140 | 60 | RTL340 (pDR2/MBP-85-99) (peptide-MHC) | – | – | – | – | – | –
